Experimental data from ChEMBL document CHEMBL5149967, “Chemical Highlights Supporting the Role of Lipid A in Efficient Biological Adaptation of Gram-Negative Bacteria to External Stresses” (J Med Chem, 2021).
pIC50, pKd, pKi: −log10 of the molar value. ≈ marks a conversion by molar mass, not a printed value. Blank lines part the entries; values can stand above or below the molecule they belong to. Residues, ends and D or L forms follow the SMILES beside them.

Assays:
[1] = test system: Escherichia coli; assay: Antibacterial activity against Escherichia coli Delta tolC assessed as bacterial growth inhibition; format: functional, organism-based
[2] = Inhibition of Escherichia coli Delta tolC LpxD
[3] = test system: Escherichia coli; assay: Antibacterial activity against Escherichia coli ATCC 25922 assessed as bacterial growth inhibition; format: functional, organism-based
[4] = test system: Pseudomonas aeruginosa; assay: Antibacterial activity against Pseudomonas aeruginosa ATCC 27853 assessed as bacterial growth inhibition; format: functional
[5] = test system: Pseudomonas aeruginosa; assay: Antibacterial activity against Pseudomonas aeruginosa clinical isolate assessed as bacterial growth inhibition at <=2 ug/ml; format: functional; design: scale not given: the % may be the effect or the level left; settings: dose <= 2 µg/ml; up to 2 µg/mL
[6] = Binding affinity to bacterial LpxA assessed as dissociation constant; design: species or system Bacteria
[7] = Inhibition of bacterial LpxA; design: species or system Bacteria
[8] = test system: Escherichia coli; assay: Antibacterial activity against Escherichia coli assessed as bacterial growth inhibition; format: functional
[9] = Inhibition of Escherichia coli LpxC
[10] = Binding affinity to Escherichia coli LpxC assessed as inhibition constant
[11] = target: T1, 3-oxoacyl-[acyl-carrier-protein] synthase 2 (Staphylococcus aureus, UniProt Q5TKS0); assay: Inhibition of Staphylococcus aureus FabF
T1 sequence (Q5TKS0 whole entry): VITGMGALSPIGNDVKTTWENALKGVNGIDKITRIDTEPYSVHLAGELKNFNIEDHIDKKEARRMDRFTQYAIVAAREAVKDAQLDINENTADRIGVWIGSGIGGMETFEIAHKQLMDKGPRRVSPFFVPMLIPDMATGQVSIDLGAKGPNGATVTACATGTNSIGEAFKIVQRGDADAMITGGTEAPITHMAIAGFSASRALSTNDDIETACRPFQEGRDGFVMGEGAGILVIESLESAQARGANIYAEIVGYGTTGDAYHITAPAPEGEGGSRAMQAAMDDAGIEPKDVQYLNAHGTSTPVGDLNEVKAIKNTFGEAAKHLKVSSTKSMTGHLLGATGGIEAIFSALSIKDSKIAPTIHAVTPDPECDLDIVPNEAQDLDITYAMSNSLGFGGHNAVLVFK

[12] = Inhibition of Staphylococcus aureus FabH
[13] = test system: Staphylococcus aureus; assay: Antibacterial activity against Staphylococcus aureus MSSA assessed as bacterial growth inhibition; format: functional, organism-based
[14] = test system: Staphylococcus aureus; assay: Antibacterial activity against Staphylococcus aureus MRSA assessed as bacterial growth inhibition; format: functional, organism-based
[15] = test system: Staphylococcus aureus; assay: Antibacterial activity against Macrolide-resistant Staphylococcus aureus MRSA assessed as bacterial growth inhibition; format: functional, organism-based
[16] = test system: Staphylococcus aureus; assay: Antibacterial activity against Linezolid-resistant Staphylococcus aureus MRSA assessed as bacterial growth inhibition; format: functional, organism-based
[17] = test system: Staphylococcus aureus; assay: Antibacterial activity against Vancomycin-resistant Staphylococcus aureus VISA assessed as bacterial growth inhibition; format: functional, organism-based
[18] = test system: Streptococcus pneumoniae; assay: Antibacterial activity against Streptococcus pneumoniae assessed as bacterial growth inhibition; format: functional, organism-based
[19] = test system: Escherichia coli; assay: Antibacterial activity against Escherichia coli envA+ assessed as bacterial growth inhibition; format: functional
[20] = test system: Pseudomonas aeruginosa; assay: Antibacterial activity against Pseudomonas aeruginosa assessed as bacterial growth inhibition; format: functional
[21] = Binding affinity to bacterial LpxA assessed as dissociation constant by SPR analysis; design: species or system Bacteria
[22] = Binding affinity to Pseudomonas aeruginosa LpxD assessed as dissociation constant
[23] = Binding affinity to bacterial LpxD assessed as dissociation constant; design: species or system Bacteria
[24] = Inhibition of Escherichia coli BL21(DE3) LpxA
[25] = Inhibition of bacterial FabF/B; design: species or system Bacteria
[26] = Inhibition of bacterial FabH; design: species or system Bacteria
[27] = test system: Escherichia coli; assay: Antibacterial activity against Escherichia coli Delta tolC expressing Plac/LpxD assessed as bacterial growth inhibition; format: functional
[28] = Binding affinity to Escherichia coli LpxC assessed as inhibition constant at pH 5.5 to 7.4
[29] = Binding affinity to Aquifex aeolicus LpxC assessed as inhibition constant at pH 5.5

Compound: CC1(C)CC(=O)C2=C(C1)Nc1nn(-c3ccccc3)c(O)c1C2c1ccccc1Cl (stereo unspecified)
- MIC [1]: 3.13 µg/mL (≈ 7.45 µM)
- pIC50 [2]: 5.49

Compound: Cc1ccnc(-c2cc(C(=O)N3CCOC[C@H]3Cc3ccccc3)[nH]n2)c1
- pKd [6]: 3.96
- pIC50 [7]: 5.32
- MIC [3]: > 128 µg/mL
- IC50 [1]: 2 µg/mL (≈ 5.52 µM)

Compound: C=C1C[C@@]23C=CC(=O)[C@@](C)(CCC(=O)Nc4c(O)ccc(C(=O)O)c4O)[C@@H]2C[C@@H]1CC3 [PLATENCIN]
- pIC50 [11]: 5.34
- pIC50 [12]: 5.04
- IC50 [13]: 0.06 µg/mL (≈ 0.141 µM)
- IC50 [14]: 0.06 µg/mL (≈ 0.141 µM)
- IC50 [15]: 0.06 µg/mL (≈ 0.141 µM)
- IC50 [16]: 0.06 µg/mL (≈ 0.141 µM)
- IC50 [17]: 0.06 µg/mL (≈ 0.141 µM)
- IC50 [18]: 0.06 µg/mL (≈ 0.141 µM)

Compound: CC[C@H](C)[C@H](NC(=O)[C@H](CC(=O)O)NC(=O)[C@H](Cc1c[nH]c2ccccc12)NC(=O)[C@H](CCCCN)NC(=O)[C@@H]1CCCN1C(=O)[C@H](CC(C)C)NC(=O)[C@H](CCSC)NC(=O)[C@H](Cc1ccc(O)cc1)NC(=O)[C@H](CC(C)C)NC(=O)[C@H](CC(N)=O)NC(=O)[C@@H](N)[C@@H](C)O)C(=O)N1CCC[C@H]1C(N)=O (H-TNLYMLPKWDIP-NH2)
- pKd [23]: 5.22
- pKd [6]: 4.70

Compound: COc1cccc(Cl)c1C[C@@H]1COCCN1C(=O)c1cc(-c2cc(C)c(N)cn2)n[nH]1
- pIC50 [7]: 6.22
- IC50 [3]: 16 µg/mL (≈ 36.2 µM)
- IC50 [1]: < 0.125 µg/mL

Compound: NC(Cc1c[nH]c2ccc([N+](=O)[O-])cc12)C(=O)O (stereo unspecified)
- pKd [6]: 4.87

Compound: CC1(C)CC(=O)C2C(=Nc3nn(-c4ccccc4)c(O)c3C2c2ccccc2Cl)C1 (stereo unspecified)
- MIC [1]: 1 µg/mL (≈ 2.38 µM)
- MIC [8]: 128 µg/mL (≈ 305 µM)
- MIC [27]: 8 µg/mL (≈ 19.1 µM)

Compound: O=C(NO)[C@@H](Cc1ccc2ccccc2c1)NS(=O)(=O)c1ccc(Br)cc1
- MIC [8]: 2 µg/mL (≈ 4.45 µM)
- pIC50 [9]: 6.40
- MIC [20]: > 32 µg/mL

Compound: CCCCCCCCCCCCC(=O)OC1C(CC(=O)NO)COC(CO)C1O (stereo unspecified)
- pKi [28]: 6.19
- pKi [29]: 9.00

Second part, led by results:

- MIC [3]: 0.125 µg/mL (≈ 0.338 µM)
- MIC [4]: 0.25 µg/mL (≈ 0.677 µM)
Compound: CC(C)(N)[C@H](NC(=O)c1ccc(C#CC#C[C@@H]2C[C@H]2CO)cc1)C(=O)NO [ACHN-975]
- Activity [5]: 100%

- MIC [8]: 200 µg/mL (≈ 970 µM)
- pIC50 [9]: 5.07
Compound: O=C(NO)C1COC(c2ccccc2)=N1 (stereo unspecified)
- pKi [10]: 4.62

- pIC50 [9]: 7.52
- MIC [19]: 1 µg/mL (≈ 3.24 µM)
- MIC [20]: > 100 µg/mL
Compound: CCCc1cc(C2=NC(C(=O)NO)CO2)cc(OC)c1OC (stereo unspecified)
- pKi [10]: 7.30

- pKd [6]: 5.68
Compound: C/C(=C\C(=O)Nc1nnn[nH]1)c1cccc(C(F)(F)F)c1

- pKd [21]: 4.71
- pKd [22]: 4.44
Compound: NC(=O)C1CN(C(=O)CSCCC(=O)O)c2ccccc2O1 (stereo unspecified)

- pKd [6]: 4.78
Compound: O=C(COc1ccccc1)NNC1=CS(=O)(=O)c2ccccc21

- pIC50 [24]: < 4.00
Compound: CC[C@H](C)[C@H](NC(=O)[C@@H]1CCCN1C(=O)[C@H](CCC(=O)O)NC(=O)[C@H](CC(C)C)NC(=O)[C@H](CCSC)NC(=O)[C@@H](N)Cc1c[nH]c2ccccc12)C(=O)O (H-WMLEPI-OH)

- IC50 [25]: 0.1 µg/mL (≈ 0.448 µM)
- IC50 [26]: 150 µg/mL (≈ 672 µM)
Compound: C/C=C/C/C=C/CCC(=O)[C@H]1O[C@H]1C(N)=O [CERULENIN]

- pIC50 [24]: 5.00
Compound: CC[C@H](C)[C@H](NC(=O)[C@@H]1CCCN1C(=O)[C@H](CCC(=O)O)NC(=O)[C@H](CC(C)C)NC(=O)[C@H](CCSC)NC(=O)[C@H](Cc1c[nH]c2ccccc12)NC(=O)CN)C(=O)N[C@@H](C)C(=O)NCC(=O)N[C@@H](CCCCN)C(=O)N[C@@H](Cc1c[nH]c2ccccc12)C(=O)O (H-GWMLEPIAGKW-OH)
